These are literature values, as cited in article PMC5483895 (Journal of Medicinal Chemistry, 2017).

For data set [1], the system named is CXCR4. Particulars: mutation of H203 5.42 in CXCR4, range over the ligands named.
In data set [2] the test system is CCR5. The conditions noted are these: mutation of I198 5.42 in CCR5, range over all ligands named.
The subject of data set [3] is CXCR4. Particulars: CXCR4 virtual screening hits.
Data set [4] concerns CCR5.
Data set [5] concerns CXCR3. The conditions noted are these: CXCR3 mutant Y271 6.51 A.
Data set [6] relates to CXCR3. Particulars: CXCR3 mutant W268 6.48 A.
In data set [7] the test system is CXCR4. Particulars: CXCR4 mutant I259 6.55 A.
For a further data set, the system named is CX3CR1. Particulars: mutations of Lys14, Lys18, Phe49 of the chemokine.

Read-outs that look alike come from different tables or passages of the source.

Take `c1ccc(CNCc2ccc(CN3CCCNCCNCCCNCC3)cc2)nc1` [compound 2]: the “fold effect on affinity/potency” value in the data set with CXCR4 [1] was 3–5 fold.

`COC[C@@H](c1ccc(C(F)(F)F)cc1)N1CCN(C2(C)CCN(C(=O)c3c(C)ncnc3C)CC2)C[C@@H]1C` [compound 17, Vicriviroc]: the “fold decrease in affinity and/or potency” value in the data set on CCR5 [2] was 3–125 fold.

For `Cc1ccc(-c2ccc3c(c2)C=C(C(=O)Nc2ccc(C[N+](C)(C)C4CCOCC4)cc2)CCC3)cc1.[Cl-]` [compound 19], the “fold decrease in affinity and/or potency” value in the data set on CCR5 [2] is 3–125 fold.

Regarding `CC#CCN1C(=O)[C@H]([C@@H](O)C2CCCCC2)NC(=O)C12CCN(Cc1c(C)nn(-c3ccccc3)c1C)CC2` [compound 23], in the data set on CCR5 [2], the “fold decrease in affinity and/or potency” value is reported as 3–125 fold.

With `Cc1ccc(-c2nc3n(c2/C=N/N=C(N)N)CCS3)cc1` [compound 76], the affinity in the data set on CXCR4 [3] was 225 µM.

Take `Cc1nc(CN(C)CC2CCCN(CCc3ccccc3C)C2)c[nH]1` (stereo not shown) [compound 78]: the affinity in the data set with CXCR4 [3] is 0.31 µM.

Consider CCL3: CC chemokine, for which the “fold effect on binding” value with CCR5 [4] (CCR5 mutant W248 6.48 A) was 10 fold; with CCR5 [4] (CCR5 mutant Y251 6.51 A/I), 7 fold.

As to CXCL11: chemokine, CXCR3 ligand, in the data set with CXCR3 [5], the “fold decrease of binding” value is on record as “more than 10 fold”. The “fold decrease of potency” value with CXCR3 [6] is listed as “more than 10 fold”.

Regarding “CXCL12: endogenous chemokine ligand of CXCR4”, the “fold effect on potency” value in the data set with CXCR4 [7] is reported as 8 fold.

For the molecule Maraviroc [compound 16], the “fold decrease in affinity and/or potency” value with CCR5 [2] is given as 3–125 fold.

B1: CX3CL1: human CX3C chemokine (protein, UniProt P78423 25-397, looked up)
Fractalkine: QHHGVTKCNITCSKMTSKIPVALLIHYQQNQASCGKRAIILETRQHRLFCADPKEQWVKDAMQHLDRQAAALTRNGGTFEKQIGEVKPRTTPAAGGMDESVVLEPEATGESSSLEPTPSSQEAQRALGTSPELPTGVTGSSGTRLPPTPKAQDGGPVGTELFRVPPVSTAATWQSSAPHQPGPSLWAEAKTSEAPSTQDPSTQASTASSPAPEENAPSEGQRVWGQGQSPRPENSLEREEMGPVPAHTDAFQDWGPGSMAHVSVVPVSSEGTPSREPVASGSWTPKAEEPIHATMDPQRLGVLITPVPDAQAATRRQAVGLLAFLGLLFCLGVAMFTYQSLQGCPRKMAGEMAEGLRYIPRSCGSNSYVLVPV
For the molecule B1, the “fold reduction of affinity for the receptor” value with CX3CR1 was “more than 10 fold”.
